Experiments:
Type in all cases: cell-based
AMO-1 = test: CellTiter-Glo cell viability, AMO-1
Description: (§1) The 50% inhibitory concentration (IC50) was determined in the cancer cell lines using CellTiter-Glo luminescent cell viability assay after incubation with different concentrations of active agents. Each cell line was treated with active Zn(II) agent, a standard chemotherapy drug as reference control, and culture medium as vehicle control. Cell Lines. All cell lines were cultured in media supplemented with 10-15% FBS, at a temperature of 37° C., 5% CO2, and 95% humidity. The reference control drug for all cell lines was cisplatin, to be used for genomic analysis. The cell lines tested, the tissue of origin are shown below in Table 1: Procedure for Determining Half Maximal Inhibition Concentration IC50 • 1. Harvested cells during the logarithmic growth period and count cell number using Count-star. • 2. Adjusted cell concentrations to 4.44×10^4 cells/mL with respective culture medium. • 3. Added 90 μL cell suspensions to two 96-well plates (plates A and B) with the final cell density of 4×10^3 cells/well. (cell concentration was adjusted according to the data base or density optimization assay.) • 4a. Next day: For the plates of TO reading: • 1) Added 10 μL culture medium to each well of plate A for TO reading. • 2) Equilibrated the plate and its content at RT for approximately 30 min. • 3) Added 50 μL CellTiter-Glo reagent to each well. • 4) Mixed content for 5 min on an orbital shaker to induce cell lysis. • 5) Allowed the plate to incubate at RT for 20 min to stabilize luminescent signal. • 6) Recorded luminescence (TO) using EnVision Multi Label Reader. • 4b. For the plates of test reading: • 1) Prepared 10× solution of Zn(II) agent test article. […] The formula for calculating surviving rate is shown below and the absolute IC50 (EC50) was calculated according to the dose-response curve generated by GraphPad Prism 5.0. • 12) The surviving rate (%)=(LumTest article−LumMedium control)/(LumNon-treated−LumMedium control)×100%.

DU4475 = test: CellTiter-Glo cell viability, DU4475
Description: as §1

NCI-H460 = test: CellTiter-Glo cell viability, NCI-H460
Description: as §1

A549 = test: CellTiter-Glo cell viability, A549
Description: (§2) The 50% inhibitory concentration (IC50) was determined in the cancer cell lines using CellTiter-Glo luminescent cell viability assay after incubation with different concentrations of active agents. Each cell line was treated with active Zn(II) agent, a standard chemotherapy drug as reference control, and culture medium as vehicle control. Cell Lines. All cell lines were cultured in media supplemented with 10-15% FBS, at a temperature of 37° C., 5% CO2, and 95% humidity. The reference control drug for all cell lines was cisplatin, to be used for genomic analysis. The cell lines tested, the tissue of origin are shown below in Table 1: Procedure for Determining Half Maximal Inhibition Concentration IC50 • 1. Harvested cells during the logarithmic growth period and count cell number using Count-star. • 2. Adjusted cell concentrations to 4.44×10^4 cells/mL with respective culture medium. • 3. Added 90 μL cell suspensions to two 96-well plates (plates A and B) with the final cell density of 4×10^3 cells/well. (cell concentration was adjusted according to the data base or density optimization assay.) • 4a. […]

MOLM-16 = test: CellTiter-Glo cell viability, MOLM-16
Description: as §1

JJN-3 = test: CellTiter-Glo cell viability, JJN-3
Description: as §1

JVM-3 = test: CellTiter-Glo cell viability, JVM-3
Description: as §1

50 cancer cell lines = test: 50 cell line screen, summary of eradication; conditions: out of 50 cell lines
Description: as §1, with “control.” for “control. Cell Lines. All cell lines were cultured in media supplemented with 10-15% FBS, at a temperature of 37° C., 5% CO2, and 95% humidity. The reference control drug for all cell lines was cisplatin, to be used for genomic analysis. The cell lines tested, the tissue of origin are shown below in Table 1:”, “control)×100%. Stratifying the cell line panel makeup, the 50 cell lines included 30 blood cancers (17 leukemia and 13 lymphoma cell lines) and 20 solid tumor cancers, including breast (3), cervical (1), colorectum (1), liver (4), lung (4), ovarian (2), pancreas (2), prostate (2), and uterine (1) cancer cell lines.” for “control)×100%.”

MCF7 = test: CellTiter-Glo cell viability, MCF7
Description: as §2

Pfeiffer = test: CellTiter-Glo cell viability, Pfeiffer
Description: as §1

ML-2 = test: CellTiter-Glo cell viability, ML-2
Description: as §1

SU-DHL-6 = test: CellTiter-Glo cell viability, SU-DHL-6
Description: as §1

JHH-7 = test: CellTiter-Glo cell viability, JHH-7
Description: as §1

L-363 = test: CellTiter-Glo cell viability, L-363
Description: as §1

K-562 = test: CellTiter-Glo cell viability, K-562
Description: as §1

NAMALWA = test: CellTiter-Glo cell viability, NAMALWA
Description: as §1

NALM-6 = test: CellTiter-Glo cell viability, NALM-6
Description: as §1

[1] = 96 h, top conc. 50 μg/mL Zn(II) agent, 100 μM cisplatin

N.N.[Cl][Pt][Cl] [Cisplatin]
Absolute IC50 (AMO-1; 96 h, CellTiter-Glo): 0.27 µg/mL | % inhibition at top conc. (AMO-1; [1]): 99.99% | HillSlope (AMO-1; 96 h dose-response fit): −3.34 | Absolute IC50 (DU4475; 96 h, CellTiter-Glo): 0.31 µg/mL | % inhibition at top conc. (DU4475; [1]): 99.94% | HillSlope (DU4475; 96 h dose-response fit): −2.54 | Absolute IC50 (NCI-H460; 96 h, CellTiter-Glo): 0.15 µg/mL | % inhibition at top conc. (NCI-H460; [1]): 99.98% | HillSlope (NCI-H460; 96 h dose-response fit): −1.63 | % inhibition at top conc. (A549; [1]): 97.57% | HillSlope (A549; 96 h dose-response fit): −0.93 | Absolute IC50 (MOLM-16; 96 h, CellTiter-Glo): 0.15 µg/mL | % inhibition at top conc. (MOLM-16; [1]): 99.96% | HillSlope (MOLM-16; 96 h dose-response fit): −1.65 | Absolute IC50 (JJN-3; 96 h, CellTiter-Glo): 0.28 µg/mL | % inhibition at top conc. (JJN-3; [1]): 99.81% | HillSlope (JJN-3; 96 h dose-response fit): −1.17 | Absolute IC50 (JVM-3; 96 h, CellTiter-Glo): 0.14 µg/mL | % inhibition at top conc. (JVM-3; [1]): 99.99% | HillSlope (JVM-3; 96 h dose-response fit): −1.70 | number of cell lines with more than 97% eradication (50 cancer cell lines): 45 | number of cell lines with more than 99% eradication (50 cancer cell lines): 39 | number of cell lines with poor response of less than 90% eradication (50 cancer cell lines): 2 | % inhibition at top conc. (MCF7; [1]): 96.37% | HillSlope (MCF7; 96 h dose-response fit): −0.60 | Absolute IC50 (Pfeiffer; 96 h, CellTiter-Glo): 0.83 µg/mL | % inhibition at top conc. (Pfeiffer; [1]): 99.98% | HillSlope (Pfeiffer; 96 h dose-response fit): −1.79 | Absolute IC50 (ML-2; 96 h, CellTiter-Glo): 0.32 µg/mL | % inhibition at top conc. (ML-2; [1]): 100.00% | HillSlope (ML-2; 96 h dose-response fit): −3.28 | Absolute IC50 (SU-DHL-6; 96 h, CellTiter-Glo): 0.38 µg/mL | % inhibition at top conc. (SU-DHL-6; [1]): 99.99% | HillSlope (SU-DHL-6; 96 h dose-response fit): −1.11 | Absolute IC50 (JHH-7; 96 h, CellTiter-Glo): 0.44 µg/mL | % inhibition at top conc. (JHH-7; [1]): 99.16% | HillSlope (JHH-7; 96 h dose-response fit): −0.80 | Absolute IC50 (L-363; 96 h, CellTiter-Glo): 0.83 µg/mL | % inhibition at top conc. (L-363; [1]): 99.98% | HillSlope (L-363; 96 h dose-response fit): −2.08 | Absolute IC50 (K-562; 96 h, CellTiter-Glo): 1.02 µg/mL | % inhibition at top conc. (K-562; [1]): 97.71% | HillSlope (K-562; 96 h dose-response fit): −1.81 | Absolute IC50 (NAMALWA; 96 h, CellTiter-Glo): 0.07 µg/mL | % inhibition at top conc. (NAMALWA; [1]): 99.99% | HillSlope (NAMALWA; 96 h dose-response fit): −3.97 | Absolute IC50 (NALM-6; 96 h, CellTiter-Glo): 0.21 µg/mL | % inhibition at top conc. (NALM-6; [1]): 99.64% | HillSlope (NALM-6; 96 h dose-response fit): −2.22
